Drawing on patent US5196438A, “Amino acid derivatives” (Hoffmann-La Roche Inc., priority 1989, dated 1993), this text covers IC50 for two compounds.

Like-named read-outs stand apart in the source and are kept apart here.

Test [1] relates to HTLV-III (strain RF) grown in C8166 cells. Put plainly: Activity against HIV (p24 antigen capture assay in infected C8166 cells). The class given is cell-based. The settings on record: Human immunodeficiency virus 1, concentration that produces 50% protection, 72 hours, viral protein 24 antigen capture, read-out: I50 Activity against HIV. As for the experimental part: This assay uses HTLV-III (strain RF) grown in C8166 cells (a human CD4^+ T lymphoblastoid line) using RPM1 1640 medium with bicarbonate buffer, antibiotics and 10% fetal bovine serum.
A suspension of cells is infected with ten times the TCD50 of virus and adsorption allowed to proceed for 90 minutes at 37° C. The cells are washed three times with medium. The test is carried out in 6 ml tissue culture tubes, each tube containing 2×10^5 infected cells in 1.5 ml of medium. Test compounds are dissolved in either aqueous medium or dimethyl sulphoxide, according to solubility, and a 15 μl solution of the substance added. The cultures are incubated at 37° C. for 72 hours in a humidified atmosphere containing 5% carbon dioxide in air. The cultures are then centrifuged and an aliquot of the supernatant solubilized with Nonidet P40 and subjected to an antigen capture assay which uses a primary antiserum with particular reactivity against the viral protein 24 and a horseradish peroxidase detection system. Color generation is measured spectrophotometrically and plotted against the concentration of test substance. The concentration that produces 50% protection is determined. (I50).

The next test concerns the target HIV protease (Human immunodeficiency virus type 1 group M subtype B, UniProt P04585). Put plainly: In vitro inhibition of HIV protease (spectrophotometric assay of N-terminal proline from peptide substrate cleavage). The class given is biochemical. The settings on record: citrate buffer pH 5.5, 37° C. How it is done: HIV protease was expressed in E. coli and partially purified from soluble extracts of the bacterium by ammonium sulphate fractionation (0-30%). […] Cleavage of the substrate was quantified by measuring the production of H-Pro-Ile isobutylamide by the spectrophotometric assay of N-terminal proline.
1.25 mM of substrate were dissolved in 125 mM of citrate buffer (pH 5.5) containing 0.125 mg/ml of Tween 20. […] The solution was heated in a water bath and then the pigmented residues were re-dissolved in 1 ml of 1% pyrogallol in 33% water in acetone (wt./vol./vol.). The optical density of the solution was measured spectrophotometrically at 599 nm.

Regarding `CC(C)(C)NC(=O)[C@@H]1C[C@@H]2CCCC[C@@H]2CN1C[C@@H](O)[C@H](Cc1ccccc1)NC(=O)[C@H](CC(N)=O)NC(=O)c1ccc2ccccc2n1` [2-Quinolylcarbonyl, N-tert.butyl-decahydro-2-[2(R)-hydroxy-4-phenyl-3(S)-[[N-(2-quinolylcarbonyl)-L-asparaginyl]amino]butyl]-(4aS,8aS)-isoquinoline-3(S)-carboxamide], the IC50 in test [1] is 2 nM.

Consider `CC(C)(C)NC(=O)[C@@H]1C[C@@H]2CCCC[C@@H]2CN1C[C@@H](O)[C@H](Cc1ccccc1)NC(=O)[C@H](CC(N)=O)NC(=O)OCc1ccccc1` [Benzyloxycarbonyl, 2-[3(S)-[[N-(benzyloxycarbonyl)-L-asparaginyl]amino]-2(R)-hydroxy-4-phenylbutyl]-N-tert.butyl-decahydro-(4aS,8aS)-isoquinoline-3(S)-carboxamide], for which the IC50 on HIV protease (substrate S^1: succinyl-Ser-Leu-Asn-Tyr-Pro-Ile isobutylamide, read-out: I50 Inhibition of HIV protease, S^1) is less than 24 nM; at HIV protease (substrate S^2: succinyl-Val-Ser-Gln-Asn-Phe-Pro-Ile isobutylamide, read-out: I50 Inhibition of HIV protease, S^2) it was less than 2.7 nM; in test [1], 20 nM.
